Test results from patent publication US20150306096A1, “8'-HYDROXY-DIHYDROERGOTAMINE COMPOUNDS AND COMPOSITIONS” (MAP Pharmaceuticals, Inc., priority 2012, published 2015).

Experiments:
Assay in all cases: Radioligand competition binding and kinetics, CHO-K1 membranes
human 5-HT1D receptor = target: T1, human 5-HT1D receptor (Homo sapiens, UniProt P28221); conditions: 5-HT1D
T1 construct: purchased Euroscreen; host or cells: CHO-K1
Protocol: (§1) For kinetics of radioligand competitive binding, serial dilutions were performed from master solution in 100% DMSO to obtain intermediate concentrations 200-fold higher than the concentrations to be tested. Each test sample was diluted 100-fold in the assay buffer and dispensed into the test plate.
5-HT1D Radioligand Binding Assay
Assay buffer: 50 mM Tris (pH 7.4), 4 mM CaCl2, 0.1% ascorbic acid
Washing buffer: 50 mM Tris (pH 7.4)
Membrane: recombinant CHO-K1-5-HT1D membranes thawed on ice and diluted in assay buffer (10 μg/well)
(§2) Ligand: 5-HT (Sigma, H-9523)
Radioligand: [^3H]-CT (Perkin Elmer, TRK1038, diluted in assay buffer for a final concentration of 0.5 nM) Filter plate: GF/B Unifilter plate (Perkin Elmer, 6005177) presoaked in 0.5% PEI for 2 hours at RT.
(§3) Determination of the Kon constant. Radioligand association kinetics on each receptor were performed by adding in the wells of a 96 well plate 50 μL of radioligand and 50 μL of membrane extracts. The samples were incubated for the times reported in Table 3 below at a temperature optimized for each receptor and filtered over a filter plate. After washing the filters 5 times with 0.5 mL of ice-cold washing buffer, 50 μL of Microscint 20 (Packard) were added to the filters and the plates were incubated 15 min on an orbital shaker and then counted for 1 min/well. This allowed determination of the kobs for each radioligand. Association kinetics were performed at 5 different radioligand concentrations optimized for each receptor (see Table 3 below) to determine 5 different kobs. The different kobs were then plotted against the [radioligand] and the K. was calculated using the following equation: kon=(kobs−koff)[radioligand].
(§4) Determination of the Koff constant. Radioligand dissociation kinetics on each receptor were performed by adding in the wells of a 96 well plate 45 μL of radioligand and 45 μL of membrane extracts. The samples were incubated as reported in Table 4 below at a temperature optimized for each receptor until binding equilibrium was reached as determined by the association kinetics experiment. Then, 100 μL of cold competitor (reference ligand) were added at a 200 fold excess (final concentration) for the times reported in Table 4 at the optimized temperature. The samples were then filtered over a filter plate. After washing the filters 5 times with 0.5 mL of ice-cold washing buffer, 50 μL of Microscint 20 (Packard) were added to the filters and the plates were incubated 15 min on an orbital shaker and then counted for 1 min/well. This allowed determination of the koff for each radioligand.
Determination of IC50 and Ki constant for each test compound. Radioligand competition binding on each receptor were performed by adding in the wells of a 96 well plate […] of test compound at increasing concentration as reported in Table 5 below, 25 μL of radioligand and 25 μL of membrane extracts. The samples were incubated for 60 min (or 4 hours for a second experiment on 5-HT2B receptors) at a temperature optimized for each receptor and then filtered over a filter plate. After washing the filters 5 times with 0.5 mL of ice-cold washing buffer, 50 μL of Microscint 20 (Packard) were added to the filters and the plates were incubated 15 min on an orbital shaker and then counted for 1 min/well. The test compounds were tested in duplicate at the nanomolar concentrations reported below in Table 5.
Determination of kon and koff constants for each test compound. Each compound was first assessed in a pilot experiment to evaluate its effect on the kinetic binding of each receptor-radioligand pair. These pilot experiments were performed at on compound concentration and were composed of 10 time-points measurements in duplicate (2, 5, 10, 20, 30, 45, 60, 90, 120 and 150 minutes).

human 5-HT1A receptor = target: T2, human 5-HT1A receptor (Homo sapiens, UniProt P08908); conditions: 5-HT1A
T2 construct: purchased Euroscreen; host or cells: CHO-K1
T2 sequence (P08908 1-422): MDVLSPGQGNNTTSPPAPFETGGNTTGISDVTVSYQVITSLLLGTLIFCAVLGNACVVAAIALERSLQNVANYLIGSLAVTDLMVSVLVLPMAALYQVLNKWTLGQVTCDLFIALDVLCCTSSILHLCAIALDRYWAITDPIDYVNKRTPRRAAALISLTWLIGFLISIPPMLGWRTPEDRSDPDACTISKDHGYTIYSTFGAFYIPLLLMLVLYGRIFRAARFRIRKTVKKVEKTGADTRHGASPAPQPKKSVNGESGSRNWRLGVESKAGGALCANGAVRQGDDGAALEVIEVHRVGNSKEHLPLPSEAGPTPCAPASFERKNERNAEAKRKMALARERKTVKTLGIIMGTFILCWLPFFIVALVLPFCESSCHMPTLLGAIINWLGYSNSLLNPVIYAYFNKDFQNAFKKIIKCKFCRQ
Protocol: as §1
as §3, with “Association kinetics were performed at 5 different radioligand concentrations optimized for each receptor (see Table 3 below) to determine 5 different kobs.” left out
Determination of the Koff constant. […] The samples were incubated as reported in Table 4 below at a temperature optimized for each receptor until binding equilibrium was reached as determined by the association kinetics experiment. […] After washing the filters 5 times with 0.5 mL of ice-cold washing buffer, 50 μL of Microscint 20 (Packard) were added to the filters and the plates were incubated 15 min on an orbital shaker and then counted for 1 min/well. […]
(§5) Determination of IC50 and Ki constant for each test compound. […] After washing the filters 5 times with 0.5 mL of ice-cold washing buffer, 50 μL of Microscint 20 (Packard) were added to the filters and the plates were incubated 15 min on an orbital shaker and then counted for 1 min/well. […]
(§6) Determination of kon and koff constants for each test compound. Each compound was first assessed in a pilot experiment to evaluate its effect on the kinetic binding of each receptor-radioligand pair. […]

human 5-HT2B receptor = target: T3, human 5-HT2B receptor (Homo sapiens, UniProt P41595); conditions: 5-HT2B
T3 construct: purchased Euroscreen; host or cells: CHO-K1
Protocol: as §1, §2, §3, §4, §5, §6

T3 sequence (P41595 whole entry): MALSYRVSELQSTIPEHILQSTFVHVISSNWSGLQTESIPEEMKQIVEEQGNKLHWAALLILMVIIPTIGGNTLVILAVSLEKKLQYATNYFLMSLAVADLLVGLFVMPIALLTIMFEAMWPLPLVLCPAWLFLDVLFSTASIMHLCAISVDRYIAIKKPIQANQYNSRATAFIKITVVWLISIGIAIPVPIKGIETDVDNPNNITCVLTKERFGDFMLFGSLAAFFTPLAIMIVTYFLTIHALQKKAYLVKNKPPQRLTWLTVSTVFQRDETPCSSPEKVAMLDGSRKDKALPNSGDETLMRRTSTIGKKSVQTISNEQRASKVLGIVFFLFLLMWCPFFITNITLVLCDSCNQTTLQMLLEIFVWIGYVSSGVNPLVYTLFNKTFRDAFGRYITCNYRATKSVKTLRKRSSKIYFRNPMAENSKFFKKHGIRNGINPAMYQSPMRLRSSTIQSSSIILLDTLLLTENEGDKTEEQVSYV
T1 sequence (P28221 whole entry): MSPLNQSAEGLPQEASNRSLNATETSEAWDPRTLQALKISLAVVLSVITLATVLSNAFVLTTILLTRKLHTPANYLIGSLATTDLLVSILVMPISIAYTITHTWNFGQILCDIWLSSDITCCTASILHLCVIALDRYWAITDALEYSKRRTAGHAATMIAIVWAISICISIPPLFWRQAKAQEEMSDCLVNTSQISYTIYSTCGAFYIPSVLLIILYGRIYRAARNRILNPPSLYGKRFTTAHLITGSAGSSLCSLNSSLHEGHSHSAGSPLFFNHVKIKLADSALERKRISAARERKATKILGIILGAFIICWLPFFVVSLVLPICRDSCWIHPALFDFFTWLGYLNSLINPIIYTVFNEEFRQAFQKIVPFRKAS

SMILES: CNS(=O)(=O)Cc1ccc2[nH]cc(CCN(C)C)c2c1 [Sumatriptan, sumatriptan]
- Avg Dissociation half-life (human 5-HT1D receptor): 5.4 min
- Avg Dissociation half-life (human 5-HT1A receptor): 1.09 h
- Avg Dissociation half-life (human 5-HT2B receptor): 22.2 min
- IC50 (human 5-HT2B receptor; [3H]-Mesulergine, read-out: IC50 from binding assay): 19.9 µM
